Tested on: NL-RLuc virus (recombinant NL4-3 HIV with Renilla Luciferase gene)
Test: Inhibition of HIV replication (NL-RLuc virus in MT-2 cells, luciferase readout)
Assay type: cell-based, Human immunodeficiency virus (HIV)
Conditions: MT2, 120 h
Method in brief: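 EC50 derived via median effect equation from at least 2 experiments, using luciferase expression as virus-growth readout. Replication-competent NL-RLuc reporter virus (nef partly replaced by Renilla luciferase) infected MT-2 cells with serial compound dilutions; 5-day incubation in RPMI 1640 plus 10% FBS.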

Molecule Cc1nc(C)c([C@H](OC(C)(C)C)C(=O)O)c(N2CCC(C)(C)CC2)c1-c1ccc2c(c1)CCN(c1cc(N3CCOCC3)nc(N3CCOCC3)n1)C2 [Example 86, (S)-2-(tert-Butoxy)-2-(4-(4,4-dimethylpiperidin-1-yl)-5-(2-(2,6-dimorpholinopyrimidin-4-yl)-1,2,3,4-tetrahydroisoquinolin-6-yl)-2,6-dimethylpyridin-3-yl)acetic Acid] has an EC50 of 4 nM.
CC1(C)CCN(Cc2nc(Cl)c([C@H](OC(C)(C)C)C(=O)O)c(N3CCC(C)(C)CC3)c2-c2ccc3c(c2)CCN(c2ncnc4c2oc2ccccc24)C3)CC1 [Example 96, (S)-2-(5-(2-(Benzofuro[3,2-d]pyrimidin-4-yl)-1,2,3,4-tetrahydroisoquinolin-6-yl)-2-chloro-4-(4,4-dimethylpiperidin-1-yl)-6-((4,4-dimethylpiperidin-1-yl)methyl)pyridin-3-yl)-2-(tert-butoxy)acetic Acid] gave an EC50 of 0.3 nM.
Cc1cc(F)ccc1CN1CCc2cc(-c3c(N)nc(Cl)c([C@H](OC(C)(C)C)C(=O)O)c3N3CCC(C)(C)CC3)ccc2C1 [Example 99, (S)-2-(6-Amino-2-chloro-4-(4,4-dimethylpiperidin-1-yl)-5-(2-(4-fluoro-2-methylbenzyl)-1,2,3,4-tetrahydroisoquinolin-6-yl)pyridin-3-yl)-2-(tert-butoxy)acetic Acid] gave an EC50 of 4 nM.
Molecule CC1(C)CCN(c2c(-c3ccc4c(c3)CCN(c3nccc(N5CCOCC5)n3)C4)c(CO)nc(Cl)c2[C@H](OC(C)(C)C)C(=O)O)CC1 [Example 151, (S)-2-(tert-Butoxy)-2-(2-chloro-4-(4,4-dimethylpiperidin-1-yl)-6-(hydroxymethyl)-5-(2-(4-morpholinopyrimidin-2-yl)-1,2,3,4-tetrahydroisoquinolin-6-yl)pyridin-3-yl)acetic Acid] has an EC50 of 2 nM.
For Cc1nc(C)c([C@H](OC(C)(C)C)C(=O)O)c(N2CCC(C)(C)CC2)c1-c1ccc2c(c1)CCN(c1cc(N3CCC(O)CC3)ncn1)C2 [Example 125, (S)-2-(tert-Butoxy)-2-(4-(4,4-dimethylpiperidin-1-yl)-5-(2-(6-(4-hydroxypiperidin-1-yl)pyrimidin-4-yl)-1,2,3,4-tetrahydroisoquinolin-6-yl)-2,6-dimethylpyridin-3-yl)acetic Acid], the EC50 was 23 nM.
Work on COc1cccc(-c2cc(N3CCc4cc(-c5c(C)nc(C)c([C@H](OC(C)(C)C)C(=O)O)c5N5CCC(C)(C)CC5)ccc4C3)ncn2)c1 [Example 79, (S)-2-(tert-Butoxy)-2-(4-(4,4-dimethylpiperidin-1-yl)-5-(2-(6-(3-methoxyphenyl)pyrimidin-4-yl)-1,2,3,4-tetrahydroisoquinolin-6-yl)-2,6-dimethylpyridin-3-yl)acetic Acid] yielded an EC50 of 11 nM.
Molecule COc1ccncc1-c1cc(C)nc(N2CCc3cc(-c4c(C)nc(C)c([C@H](OC(C)(C)C)C(=O)O)c4N4CCC(C)(C)CC4)ccc3C2)n1 [Example 107, (S)-2-(tert-Butoxy)-2-(4-(4,4-dimethylpiperidin-1-yl)-5-(2-(4-(4-methoxypyridin-3-yl)-6-methylpyrimidin-2-yl)-1,2,3,4-tetrahydroisoquinolin-6-yl)-2,6-dimethylpyridin-3-yl)acetic Acid] has an EC50 of 1 nM.
Molecule Cc1nc(C)c([C@H](OC(C)(C)C)C(=O)O)c(N2CCC(C)(C)CC2)c1-c1ccc2c(c1)CCN(c1ccnc(N3CCN(C)CC3)n1)C2 [Example 39, (2S)-2-(tert-Butoxy)-2-[4-(4,4-dimethylpiperidin-1-yl)-2,6-dimethyl-5-{2-[2-(4-methylpiperazin-1-yl)pyrimidin-4-yl]-1,2,3,4-tetrahydroisoquinolin-6-yl}pyridin-3-yl]acetic Acid] has an EC50 of 5 nM.
Work on Cc1nc(C)c([C@H](OC(C)(C)C)C(=O)O)c(N2CCC(C)(C)CC2)c1-c1ccc2c(c1)CCN(c1ccnc(N3C4CCC3CN(C)C4)n1)C2 [Example 42, (2S)-2-(tert-Butoxy)-2-[4-(4,4-dimethylpiperidin-1-yl)-2,6-dimethyl-5-[2-(2-{3-methyl-3,8-diazabicyclo[3.2.1]octan-8-yl}pyrimidin-4-yl)-1,2,3,4-tetrahydroisoquinolin-6-yl]pyridin-3-yl]acetic Acid] yielded an EC50 of 4 nM.

— patent US20200016136A1 (VIIV HEALTHCARE UK (NO. 5) LIMITED, priority 2017, published 2020)
